Measurements published in US11384055B2 (BIOMARIN PHARMACEUTICAL INC., priority 2017, dated 2022).
Like-named read-outs stand apart in the source and are kept apart here.

Target: T1, Human GO (Homo sapiens, UniProt Q9UJM8)
T1 construct: purchased Novus Biologicals NBP1-72412
T1 sequence (Q9UJM8 1-370): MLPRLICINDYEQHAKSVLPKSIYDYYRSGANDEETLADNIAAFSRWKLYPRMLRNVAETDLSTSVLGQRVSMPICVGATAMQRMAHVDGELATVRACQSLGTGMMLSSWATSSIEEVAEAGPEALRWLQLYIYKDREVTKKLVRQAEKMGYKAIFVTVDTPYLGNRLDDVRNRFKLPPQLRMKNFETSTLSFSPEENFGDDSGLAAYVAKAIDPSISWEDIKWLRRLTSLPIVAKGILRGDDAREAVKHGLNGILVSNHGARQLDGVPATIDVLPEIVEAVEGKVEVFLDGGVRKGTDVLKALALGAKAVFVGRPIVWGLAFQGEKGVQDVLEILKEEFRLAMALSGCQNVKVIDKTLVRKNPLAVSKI
Assay: GO enzymatic assay (coupled fluorescence/HRP assay, glycolate substrate)
Format: biochemical
Details: read-out: Range (range of IC50 values calculated from the enzymatic assays)
Method: Assay 1: GO Enzymatic Assay
GO was incubated with its substrate, glycolate, in 50 mM potassium phosphate buffer, pH 7. […] The enzyme was optimized and the kinetics was determined.
Compound inhibition was determined by adding various concentrations of inhibitors in the GO enzyme assay. The IC50 value for each measured compound was generated from sigmoidal dose-response (variable slope) curves with GraphPad Prism software (GraphPad Software, Inc., San Diego, Calif.) using the percent inhibition of GO activity relative to DMSO control.

Row | SMILES | IC50 (Table 4) | IC50 (Table 1)
1 | CCCC(O)(CC)Cn1ccc(-c2ccc([C@H]3CC[C@H](Oc4nn[nH]c4C(=O)O)CC3)cc2)n1 (relative stereo) [Example 458, 4-(((trans)-4-(4-(1-(2-ethyl-2-hydroxypentyl)-1H-pyrazol-3-yl)phenyl)cyclohexyl)oxy)-1H-1,2,3-triazole-5-carboxylic acid] | < 100 nM | 
2 | CCCC(O)(CC)Cn1nccc1-c1ccc([C@H]2CC[C@H](Oc3nn[nH]c3C(=O)O)CC2)cc1 (relative stereo) [Example 470, 4-(((trans)-4-(4-(1-(2-ethyl-2-hydroxypentyl)-1H-pyrazol-5-yl)phenyl)cyclohexyl)oxy)-1H-1,2,3-triazole-5-carboxylic acid] | < 100 nM | 
3 | CCC(Cc1cc(-c2ccc([C@H]3CC[C@H](Oc4nn[nH]c4C(=O)O)CC3)cc2)[nH]n1)OC (relative stereo) [Example 475, 4-(((trans)-4-(4-(3-(2-methoxybutyl)-1H-pyrazol-5-yl)phenyl)cyclohexyl)oxy)-1H-1,2,3-triazole-5-carboxylic acid] | < 100 nM | 
4 | O=C(O)c1[nH]nnc1O[C@H]1CC[C@H](c2ccc(-c3ccnn3[C@H]3CCCC[C@@H]3O)cc2)CC1 (relative stereo) [Example 476, 4-(((trans)-4-(4-(1-((1S,2S)-2-hydroxycyclohexyl)-1H-pyrazol-5-yl)phenyl)cyclohexyl)oxy)-1H-1,2,3-triazole-5-carboxylic acid] | < 100 nM | 
5 | O=C(O)c1[nH]nnc1O[C@H]1CC[C@H](c2ccc(OC[C@H]3CCC[C@H](CO)C3)cc2)CC1 (relative stereo) [Example 483, 4-(((trans)-4-(4-(((trans)-3-(hydroxymethyl)cyclohexyl)methoxy)phenyl)cyclohexyl)oxy)-1H-1,2,3-triazole-5-carboxylic acid] | < 100 nM | 
6 | O=C(O)c1[nH]nnc1Sc1nc(-c2ccc(Cl)c(Cl)c2)cs1 [Compound 2, 4-((4-(3,4-dichlorophenyl)thiazol-2-yl)thio)-1H-1,2,3-triazole-5-carboxylic acid] |  | < 100 nM
7 | O=C(O)c1[nH]nnc1Sc1ncc(-c2ccc(Cl)c(Cl)c2)s1 [Compound 3, 4-((5-(3,4-dichlorophenyl)thiazol-2-yl)thio)-1H-1,2,3-triazole-5-carboxylic acid] |  | < 100 nM
8 | O=C(O)c1[nH]nnc1Sc1ccc(-c2ccc(Cl)cc2)cc1 [Compound 5, 4-((4′-chloro-[1,1′-biphenyl]-4-yl)thio)-1H-1,2,3-triazole-5-carboxylic acid] |  | < 100 nM
9 | CN1CCN(c2cccc(Sc3[nH]nnc3C(=O)O)c2)CC1 [Compound 6, 5-((3-(4-methylpiperazin-1-yl)phenyl)thio)-1H-1,2,3-triazole-4-carboxylic acid 2,2,2-trifluoroacetate] |  | > 10000 nM
10 | O=C(O)c1[nH]nnc1Sc1ccc(N2CCCCC2)cc1 [Compound 7, 4-((4-(piperidin-1-yl)phenyl)thio)-1H-1,2,3-triazole-5-carboxylic acid 2,2,2-trifluoroacetate] |  | 100 to 1000 nM
11 | O=C(O)c1[nH]nnc1Sc1csc(-c2ccc(Cl)c(Cl)c2)n1 [Compound 8, 4-((2-(3,4-dichlorophenyl)thiazol-4-yl)thio)-1H-1,2,3-triazole-5-carboxylic acid] |  | < 100 nM
12 | O=C(OC1CCC1)c1[nH]nnc1Sc1nc(-c2ccc(Cl)c(Cl)c2)cs1 [Compound 9, cyclobutyl 4-((4-(3,4-dichlorophenyl)thiazol-2-yl)thio)-1H-1,2,3-triazole-5-carboxylate] |  | > 10000 nM
13 | CN1CCN(c2ccc(Sc3nn[nH]c3C(=O)O)cc2)CC1 [Compound 10, 4-((4-(4-methylpiperazin-1-yl)phenyl)thio)-1H-1,2,3-triazole-5-carboxylic acid] |  | 1000 to 10000 nM
14 | CC(C)OC(=O)c1[nH]nnc1Sc1nc(-c2ccc(Cl)c(Cl)c2)cs1 [Compound 11, isopropyl 4-((4-(3,4-dichlorophenyl)thiazol-2-yl)thio)-1H-1,2,3-triazole-5-carboxylate] |  | > 10000 nM
15 | O=C(O)c1[nH]nnc1Sc1ccc(-c2ccc(Br)cc2)cn1 [Compound 12, 4-((5-(4-bromophenyl)pyridin-2-yl)thio)-1H-1,2,3-triazole-5-carboxylic acid 2,2,2-trifluoroacetate] |  | 100 to 1000 nM
16 | O=C(O)c1[nH]nnc1Sc1nnc(-c2ccc(Cl)c(Cl)c2)[nH]1 [Compound 13, 4-((5-(3,4-dichlorophenyl)-4H-1,2,4-triazol-3-yl)thio)-1H-1,2,3-triazole-5-carboxylic acid] |  | 100 to 1000 nM
17 | COc1ccc(-c2ccc(Sc3nn[nH]c3C(=O)O)cc2)cc1 [Compound 14, 4-((4′-methoxy-[1,1′-biphenyl]-4-yl)thio)-1H-1,2,3-triazole-5-carboxylic acid] |  | < 100 nM
18 | COc1ccc(-c2csc(Sc3nn[nH]c3C(=O)O)n2)cc1Cl [Compound 15, 4-((4-(3-chloro-4-methoxyphenyl)thiazol-2-yl)thio)-1H-1,2,3-triazole-5-carboxylic acid] |  | < 100 nM

Row | SMILES | IC50 (Table 4) | IC50 (Table 1)
19 | O=C(O)c1[nH]nnc1Sc1ccc(-c2ccc(OC(F)(F)F)cc2)cc1 [Compound 16, 4-((4′-(trifluoromethoxy)-[1,1′-biphenyl]-4-yl)thio)-1H-1,2,3-triazole-5-carboxylic acid] |  | < 100 nM
20 | COC(=O)c1[nH]nnc1Sc1nc(-c2ccc(Cl)c(Cl)c2)cs1 [Compound 17, methyl 4-((4-(3,4-dichlorophenyl)thiazol-2-yl)thio)-1H-1,2,3-triazole-5-carboxylate] |  | > 10000 nM
21 | O=C(O)c1[nH]nnc1Sc1nc(-c2ccc(OC3CC3)c(Cl)c2)cs1 [Compound 18, 4-((4-(3-chloro-4-cyclopropoxyphenyl)thiazol-2-yl)thio)-1H-1,2,3-triazole-5-carboxylic acid] |  | < 100 nM
22 | O=C(OC1CC1)c1[nH]nnc1Sc1nc(-c2ccc(Cl)c(Cl)c2)cs1 [Compound 19, cyclopropyl 4-((4-(3,4-dichlorophenyl)thiazol-2-yl)thio)-1H-1,2,3-triazole-5-carboxylate] |  | > 10000 nM
23 | O=C(O)c1[nH]nnc1Sc1cccc(-c2ccc(Cl)c(Cl)c2)n1 [Compound 20, 4-((6-(3,4-dichlorophenyl)pyridin-2-yl)thio)-1H-1,2,3-triazole-5-carboxylic acid] |  | < 100 nM
24 | O=C(O)c1[nH]nnc1Sc1ccc(-c2ccc(Cl)c(Cl)c2)cc1 [Compound 21, 4-((3′,4′-dichloro-[1,1′-biphenyl]-4-yl)thio)-1H-1,2,3-triazole-5-carboxylic acid] |  | < 100 nM
25 | O=C(O)c1[nH]nnc1Sc1ccc(-c2ccc(Cl)cc2Cl)cc1 [Compound 22, 4-((2′,4′-dichloro-[1,1′-biphenyl]-4-yl)thio)-1H-1,2,3-triazole-5-carboxylic acid] |  | < 100 nM
26 | COc1cc(-c2nc(Sc3nn[nH]c3C(=O)O)cs2)ccc1Cl [Compound 23, 4-((2-(4-chloro-3-methoxyphenyl)thiazol-4-yl)thio)-1H-1,2,3-triazole-5-carboxylic acid] |  | < 100 nM
27 | CC(C)Oc1cc(-c2nc(Sc3nn[nH]c3C(=O)O)cs2)ccc1Cl [Compound 24, 4-((2-(4-chloro-3-isopropoxyphenyl)thiazol-4-yl)thio)-1H-1,2,3-triazole-5-carboxylic acid] |  | < 100 nM
28 | COc1ccc(Cn2nnc(C(=O)O)c2Sc2csc(-c3ccc(OC)c(Cl)c3)n2)cc1 [Compound 25-1, 5-((2-(3-chloro-4-methoxyphenyl)thiazol-4-yl)thio)-1-(4-methoxybenzyl)-1H-1,2,3-triazole-4-carboxylic acid] |  | > 10000 nM
29 | COc1ccc(-c2nc(Sc3nn[nH]c3C(=O)O)cs2)cc1Cl [Compound 25-2, 4-((2-(3-chloro-4-methoxyphenyl)thiazol-4-yl)thio)-1H-1,2,3-triazole-5-carboxylic acid] |  | < 100 nM
30 | O=C(O)c1[nH]nnc1Sc1csc(-c2ccc(Cl)cc2Cl)n1 [Compound 26, 4-((2-(2,4-dichlorophenyl)thiazol-4-yl)thio)-1H-1,2,3-triazole-5-carboxylic acid] |  | < 100 nM
31 | CC(C)Oc1ccc(-c2nc(Sc3nn[nH]c3C(=O)O)cs2)cc1Cl [Compound 27, 4-((2-(3-chloro-4-isopropoxyphenyl)thiazol-4-yl)thio)-1H-1,2,3-triazole-5-carboxylic acid] |  | < 100 nM
32 | Cn1c(Sc2nn[nH]c2C(=O)O)nnc1-c1ccc(Cl)c(Cl)c1 [Compound 28, 4-((5-(3,4-dichlorophenyl)-4-methyl-4H-1,2,4-triazol-3-yl)thio)-1H-1,2,3-triazole-5-carboxylic acid 2,2,2-trifluoroacetate] |  | 1000 to 10000 nM
33 | CCOc1ccc2sc(Sc3nn[nH]c3C(=O)O)nc2c1 [Compound 29, 4-((5-ethoxybenzo[d]thiazol-2-yl)thio)-1H-1,2,3-triazole-5-carboxylic acid] |  | 100 to 1000 nM
34 | O=C(O)c1[nH]nnc1Sc1ccc(-c2ccc(Cl)c(OC(F)(F)F)c2)cc1 [Compound 30, 4-((4′-chloro-3′-(trifluoromethoxy)-[1,1′-biphenyl]-4-yl)thio)-1H-1,2,3-triazole-5-carboxylic acid] |  | < 100 nM
35 | O=C(O)c1[nH]nnc1Sc1ccc(-c2cccc(OC(F)(F)F)c2Cl)cc1 [Compound 31, 4-((2′-chloro-3′-(trifluoromethoxy)-[1,1′-biphenyl]-4-yl)thio)-1H-1,2,3-triazole-5-carboxylic acid] |  | < 100 nM
